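Tested at 5 concentrations; 48 h exposure; 96-well plates; endpoints linearly interpolated, else capped at highest concentration. TGI denotes the concentration required for complete inhibition of growth.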
Tests used:
Assay in all cases: NCI anticancer screen, dose series, 48 h
A498 renal = test system: A498 renal
HCC-2998 colon = test system: HCC-2998 colon
HL-60(TB) leukemia = test system: HL-60(TB) leukemia
HOP-62 NSCLC = test system: HOP-62 NSCLC
MCF7 breast = test system: MCF7 breast
NCI-H23 lung = test system: NCI-H23 lung
NCI/ADR-RES ovarian = test system: NCI/ADR-RES ovarian
OVCAR-5 ovarian = test system: OVCAR-5 ovarian
SF-268 CNS = test system: SF-268 CNS
SF-295 CNS = test system: SF-295 CNS
SK-MEL-28 melanoma = test system: SK-MEL-28 melanoma
SN12C renal = test system: SN12C renal
SNB-75 CNS = test system: SNB-75 CNS
SW-620 colon = test system: SW-620 colon
T-47D breast = test system: T-47D breast
TK-10 renal = test system: TK-10 renal
U251 CNS = test system: U251 CNS
DLD-1 colon = test system: DLD-1 colon
KM20L2 colon = test system: KM20L2 colon
M19-MEL melanoma = test system: M19-MEL melanoma

Compound	TGI (A498 renal) [µM]	TGI (HCC-2998 colon) [µM]	TGI (HL-60(TB) leukemia) [µM]	TGI (HOP-62 NSCLC) [µM]	TGI (MCF7 breast) [µM]	TGI (NCI-H23 lung) [µM]	TGI (NCI/ADR-RES ovarian) [µM]	TGI (OVCAR-5 ovarian) [µM]	TGI (SF-268 CNS) [µM]	TGI (SF-295 CNS) [µM]	TGI (SK-MEL-28 melanoma) [µM]	TGI (SN12C renal) [µM]	TGI (SNB-75 CNS) [µM]	TGI (SW-620 colon) [µM]	TGI (T-47D breast) [µM]	TGI (TK-10 renal) [µM]	TGI (U251 CNS) [µM]	TGI (DLD-1 colon) [µM]	TGI (KM20L2 colon) [µM]	TGI (M19-MEL melanoma) [µM]
C/C(=N\NC(=S)NCc1ccccc1)c1nc2ncccc2[nH]1	50	68.4	> 100	26.2	16.2	40.8	78.8	30.2	65.6	22.8	37.4	> 100	49	> 100	43.3	73.4	19.4			
O=C(CCN1CCOCC1)C(=Cc1ccccc1)C(=O)CCN1CCOCC1	31.4	26.9	3.52	37.5	13.4	7.92	13.9	33.6	15.1	29.1	5.64	7.45	29.7	4.29			28.4	3.84	25	7.64
COc1cc2oc(=O)ccc2cc1CC=C(C)C	> 100	> 100	33.1	> 100	> 100	> 100	79.3	> 100	> 100	> 100	> 100	> 100	> 100	> 100	> 100	97.5	> 100			
CCN(CC)CCN(C(=O)c1ccc(F)cc1)c1ccccc1N	> 10	> 10	> 10	> 10	> 10	> 10	> 10	> 10	> 10	> 10	> 10	> 10	> 10	> 10	> 10	> 10	> 10			

Reference: PubChem BioAssay (NCI)
